Test results from article PMC9863965 (Molecules, 2023).
Converted amounts (≈) assume the structure as drawn.

Experiments:
breast cancer (MCF7) = test: MTT cytotoxicity assay, breast cancer (MCF7); assay type: cell-based
From the text: (§1) The cell lines laboratory at Vacsera, Dokkey, Giza, Egypt provided colon cancer (Caco2), cervical cancer (HeLa), prostate cancer (PC3), breast cancer (MCF7), hepatocellular carcinoma (HepG2) and normal human fetal lung fibroblast (WI38). The sterility of the process was maintained using a laminar airflow cabinet. The Roswell Park Memorial Institute medium (RPMI 1640) was used to sustain the cell culture. […] The 10% heat-inactivated fetal bovine serum was used to supplement the medium. The 3-(4,5-dimethylthiazol-2-yl)-2,5-diphenyl-2H-tetrazolium bromide (MTT) assay was employed to measure cytotoxicity. A purple formazan was created from the yellow MTT via a mitochondrial reduction. For inoculation, a 96-well microplate was filled with 1 × 10^5 cells per well in 100 μL of Roswell Park Memorial Institute medium (RPMI 1640). Conditions of 5% CO2, 37 °C and 95% humidity were used to incubate the microplate for 24 h to produce a completely formed monolayer sheet. After the cells formed a confluent layer, the growth media was decanted from 96-well microplates. […] Confluent cell monolayers were injected with 0.1 mL of the extract at each concentration using a multichannel pipette, and then they were dispersed throughout the 96 wells. The cells that were treated with the extracts were incubated at 37 °C and 5% CO2 for 24 h. […] The optical density at 560 nm was determined using a microplate reader. […]

prostate cancer (PC3) = test: MTT cytotoxicity assay, prostate cancer (PC3); assay type: cell-based
From the text: as §1

colon cancer (Caco2) = test: MTT cytotoxicity assay, colon cancer (Caco2); assay type: cell-based
From the text: as §1

cervical cancer (HeLa) = test: MTT cytotoxicity assay, cervical cancer (HeLa); assay type: cell-based
From the text: as §1

[1] = tested on: normal human fetal lung fibroblast (WI38); test: MTT cytotoxicity assay, normal fibroblast (WI38); assay type: cell-based; settings: WI-38, mean ± standard deviation
From the text: as §1

[2] = tested on: hepatocellular carcinoma (HepG2); test: MTT cytotoxicity assay, hepatocellular carcinoma (HepG2); assay type: cell-based
From the text: as §1

[3] = tested on: tumor microtubule proteins of cancer cells; parameters: method as in doi:10.1016/j.molstruc.2022.132636, PMID 22721782; settings: cited from earlier work

## COc1cccc2c1C(=O)c1c(O)c3c(c(O)c1C2=O)C[C@@](O)(C(=O)CO)C[C@@H]3O[C@H]1C[C@H](N)[C@H](O)[C@H](C)O1 [Doxorubicin, doxorubicin]
Breast cancer (MCF7); Homo sapiens, MTT assay, breast cancer (MCF7), mean ± standard deviation
  IC50: 36 ± 6 µg/mL (≈ 66.2 µM)
Breast cancer (MCF7); IC50 of non-cancer cell line (WI38) / IC50 of MCF7
  SI: selectivity index: 1.4
Prostate cancer (PC3); IC50 of non-cancer cell line (WI38) / IC50 of PC3
  SI: selectivity index: 1.3
Prostate cancer (PC3); MTT assay, prostate cancer (PC3), mean ± standard deviation
  IC50: 38 ± 2 µg/mL (≈ 69.9 µM)
Colon cancer (Caco2); Homo sapiens, Caco-2, MTT assay, colon cancer (Caco2), mean ± standard deviation
  IC50: 70.1 ± 1 µg/mL (≈ 129 µM)
Colon cancer (Caco2); IC50 of non-cancer cell line (WI38) / IC50 of Caco2
  SI: selectivity index: 0.7
Cervical cancer (HeLa); Homo sapiens, MTT assay, cervical cancer (HeLa), mean ± standard deviation
  IC50: 40 ± 2 µg/mL (≈ 73.6 µM)
Cervical cancer (HeLa); IC50 of non-cancer cell line (WI38) / IC50 of HeLa
  SI: selectivity index: 1.2
[1]
  IC50: 51 ± 4 µg/mL (≈ 93.8 µM)
[2]; Homo sapiens, MTT assay, hepatocellular carcinoma (HepG2), mean ± standard deviation
  IC50: 44 ± 3 µg/mL (≈ 81 µM)
[2]; IC50 of non-cancer cell line (WI38) / IC50 of HepG2
  SI: selectivity index: 1.1

## Calystegine B
[3]
  antitumor effect on assembly of tumor microtubule proteins: preventing the assembly of tumor microtubule proteins
